According to patent US8697939B2, “Mouse model for depression, schizophrenia and alzheimer's disease and the use thereof” (National Yang Ming University, priority 2009, dated 2014):
Entries after “also recorded” stand apart in the source; their conditions may differ.

Key:
GNMT knockout mice = assay: Prepulse inhibition (PPI) of acoustic startle reflex in drug-treated GNMT knockout mice; format: in vivo, mouse
Procedure: The apparatus consisted of two startle chambers (Med Associates, Georgia, Vt.). One mouse selected from the WT control group and the other selected from GNMT deficient group were tested simultaneously. Each mouse was put into the PPI chamber for a 5-min acclimatization period with a […] background noise. Following this period, 10 startle pulses (120 dB, 40 ms duration) were presented with an average inter-trial interval of 15 s. Then, no stimulus (background noise, 68 dB), prepulses alone (72, 76 and 84 dB, 20 ms duration), startle pulses alone, and prepulses followed 80 ms later by startle pulses were presented six times randomly distributed over the next 20 min. […]
In view of the observed deficits in prepulse inhibition (PPI) of the acoustic startle reflex in GNMT knockout mice, we administered clozapine (a […] anti-schizophrenic drug, 1 mg/kg) to the GNMT knockout mice, and evaluated the therapeutic effects on schizophrenia. […]
Another hypothesis of schizophrenia pathology is that neuropsychiatric disorder may be associated with the dysfunction of N-methyl-D-aspartate (NMDA) receptor, a glutamate receptor. […] Therefore, in a further experiment, sarcosine (100 mg/kg) is administered to the GNMT knockout mice, and evaluated its therapeutic effects on schizophrenia.

glycine transporter-1 = target: T1, glycine transporter-1 (Homo sapiens, UniProt P48067); details: clinical studies, supplement of sarcosine; cited from earlier work
T1 construct: host or cells: human patients (endogenous transporter)
T1 sequence (P48067 1-706): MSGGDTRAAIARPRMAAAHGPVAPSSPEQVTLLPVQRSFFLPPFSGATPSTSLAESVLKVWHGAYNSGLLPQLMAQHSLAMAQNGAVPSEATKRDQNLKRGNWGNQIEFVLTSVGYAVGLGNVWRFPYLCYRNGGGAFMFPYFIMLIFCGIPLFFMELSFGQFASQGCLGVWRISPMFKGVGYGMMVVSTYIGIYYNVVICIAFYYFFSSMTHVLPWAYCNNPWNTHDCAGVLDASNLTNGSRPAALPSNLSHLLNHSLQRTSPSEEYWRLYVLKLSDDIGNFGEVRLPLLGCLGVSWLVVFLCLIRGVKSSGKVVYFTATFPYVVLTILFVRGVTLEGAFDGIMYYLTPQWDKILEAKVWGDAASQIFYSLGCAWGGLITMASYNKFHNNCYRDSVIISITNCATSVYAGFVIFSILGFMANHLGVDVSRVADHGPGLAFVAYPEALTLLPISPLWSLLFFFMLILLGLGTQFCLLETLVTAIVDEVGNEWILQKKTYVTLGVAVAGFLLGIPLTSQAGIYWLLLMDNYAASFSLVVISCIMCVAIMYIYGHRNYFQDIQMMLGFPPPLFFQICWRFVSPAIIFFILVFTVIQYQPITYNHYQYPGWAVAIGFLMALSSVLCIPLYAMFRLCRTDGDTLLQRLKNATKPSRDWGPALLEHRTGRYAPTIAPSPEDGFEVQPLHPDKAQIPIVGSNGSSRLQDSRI

[1] = phase II clinical trials; cited from earlier work

**Q.** Which results are given for CNCC(=O)O [sarcosine]?
**A.** level of startle amplitude (GNMT knockout mice; sarcosine 100 mg/kg (FIG. 10)): unaffected; percent PPI of ASR (GNMT knockout mice; sarcosine 100 mg/kg, compared with solvent control (FIG. 11)): significantly induced PPI; also recorded: significantly ameliorated deficits in prepulse inhibition; symptoms of schizophrenia (glycine transporter-1): can improve the symptoms of schizophrenia; symptoms of depression [1]: effective to ameliorate symptoms of depression
